# Literature values as cited in PubChem BioAssay AID1259410 (Chemical Carcinogenesis Research Information System (CCRIS), 2018).
# Tested on: rodent tumor promotion studies, tumor incidence
# Assay: CCRIS tumor promotion studies
# Settings: Route [Carcinogen]: DERMAL, Route [Promoter]: DERMAL, Species: MOUSE
smiles,measurement,setting,value
CCCCCCCCCCCCCC(=O)O[C@@H]1[C@@H](C)[C@@]2(O)[C@@H](C=C(CO)C[C@]3(O)C(=O)C(C)=C[C@@H]23)[C@@H]2C(C)(C)[C@]12OC(C)=O,outcome,"Carcinogen: 15,16-DIHYDRO-11-METHYLCYCLOPENTA[A]PHENANTHREN-17-ONE, 892-17-1, Doses [Carcinogen]: 1632 NMOL IN 100 µL TOLUENE ONCE, Doses [Promoter]: 0, 2 UG IN 50 µL ACETONE 2/WK FOR 19 WK BEGINNING 1 WK POST CARCINOGEN TREATMENT (STUDY DURATION: 20 WK), Strain/Sex: SKH/HR-1/MALE",skin: papilloma
same,outcome,"Carcinogen: (+/-)-R,11-T-12-DIHYDROXY-T-13,14-EPOXY-11,12,13,14-TETRAHYDRODIBENZO[A,L]PYRENE, 159812-26-7, Doses [Carcinogen]: 1.33, 4, 12 NMOL IN 100 ML ACETONE ONCE, Doses [Carcinogen]: 1.33, 4, 12 NMOL IN 100 ML ACETONE ONCE, Doses [Promoter]: 1.62 NMOL IN 100 ML ACETONE 2/WK FOR 28 WK BEGINNING 1 WK POST CARCINOGEN DOSE (STUDY DURATION: 30 WK), Strain/Sex: SENCAR/FEMALE",skin: tumor
same,outcome,"Carcinogen: (+/-)-R-11,T-12-DIHYDROXY-C-13,14-EPOXY-11,12,13,14-TETRAHYDRODIBENZO[A,L]PYRENE, 159812-27-8, Doses [Carcinogen]: 1.33, 4, 12 NMOL IN 100 ML ACETONE ONCE, Doses [Carcinogen]: 1.33, 4, 12 NMOL IN 100 ML ACETONE ONCE, Doses [Promoter]: 1.62 NMOL IN 100 ML ACETONE 2/WK FOR 28 WK BEGINNING 1 WK POST CARCINOGEN DOSE (STUDY DURATION: 30 WK), Strain/Sex: SENCAR/FEMALE",skin: tumor
same,outcome,"Carcinogen: (+/-)-TRANS-1,2-DIHYDRO-1,2-DIHYDROXY-5-METHYLCHRYSENE, 96741-20-7, Doses [Carcinogen]: 33, 100 NMOL IN 0.1 ML ACETONE ONCE, Doses [Promoter]: 2.5 UG IN 0.1 ML ACETONE 3/WK FOR 25 WK BEGINNING 10 D POST INITIATION (STUDY DURATION: 27 WK), Strain/Sex: CD-1/FEMALE",skin: tumors
same,outcome,"Carcinogen: (+/-)-TRANS-1,2-DIHYDROXY-ANTI-3,4-EPOXY-1,2,3,4-TETRAHYDRO-5-METHYLCHRYSENE, 96790-39-5, Doses [Carcinogen]: 33, 100 NMOL IN 0.1 ML ACETONE ONCE, Doses [Promoter]: 2.5 UG IN 0.1 ML ACETONE 3/WK FOR 25 WK BEGINNING 10 D POST INITIATION (STUDY DURATION: 27 WK), Strain/Sex: CD-1/FEMALE",skin: tumors
same,outcome,"Carcinogen: (+/-)-TRANS-7,8-DIHYDRO-7,8-DIHYDROXY-5-METHYLCHRYSENE, 96741-21-8, Doses [Carcinogen]: 33, 100 NMOL IN 0.1 ML ACETONE ONCE, Doses [Promoter]: 2.5 UG IN 0.1 ML ACETONE 3/WK FOR 25 WK BEGINNING 10 D POST INITIATION (STUDY DURATION: 27 WK), Strain/Sex: CD-1/FEMALE",skin: tumors
same,outcome,"Carcinogen: ANTI-1,2-DIHYDROXY-3,4-EPOXY-1,2,3,4-TETRAHYDRO-5,6-DIMETHYLCHRYSENE, 139347-89-0, Doses [Carcinogen]: 33, 100, 400 NMOL IN 0.1 ML ACETONE ONCE, Doses [Carcinogen]: 33, 100, 400 NMOL IN 0.1 ML ACETONE ONCE, Doses [Promoter]: 0, 2.5 UG IN 0.1 ML ACETONE 3/WK FOR 20 WK BEGINNING 10 D POST CARCINOGEN DOSE (STUDY DURATION: 20 WK), Strain/Sex: CD-1/FEMALE",skin: tumor
same,outcome,"Carcinogen: ANTI-4,3-DIHYDROXY-2,1-EPOXY-4,3,2,1-TETRAHYDROBENZO[C]PHENANTHRENE, 75443-72-0, Doses [Carcinogen]: 100, 400 NMOL IN 0.1 ML ACETONE ONCE, Doses [Promoter]: 0, 2.5 UG IN 0.1 ML ACETONE 3/WK FOR 20 WK BEGINNING 10 D POST CARCINOGEN DOSE (STUDY DURATION: 20 WK), Strain/Sex: CD-1/FEMALE",skin: tumor
same,outcome,"Carcinogen: BENZO[A]PYRENE, 50-32-8, Doses [Carcinogen]: 0, 2.52, 12.6, 50.5, 101 UG IN ACETONE ONCE, Doses [Carcinogen]: 0, 2.52, 12.6, 50.5, 101 UG IN ACETONE ONCE, Doses [Promoter]: 0, 2 UG IN ACETONE 2/WK FOR 52 WK (STUDY DURATION: 1 YR), Strain/Sex: SENCAR/FEMALE","skin: papilloma, carcinoma"
same,outcome,"Carcinogen: BENZO[A]PYRENE, 50-32-8, Doses [Carcinogen]: 0, 2.52, 12.6, 50.5, 101 UG IN ACETONE ONCE, Doses [Carcinogen]: 0, 2.52, 12.6, 50.5, 101 UG IN ACETONE ONCE, Doses [Promoter]: 0, 2 UG IN ACETONE 2/WK FOR 52 WK (STUDY DURATION: 1 YR), Strain/Sex: SENCAR/MALE","skin: papilloma, carcinoma"
same,outcome,"Carcinogen: BENZO[A]PYRENE, 50-32-8, Doses [Carcinogen]: 20, 100 NMOL IN 100 µL ACETONE ONCE, Doses [Promoter]: 3.24 NMOL/100 µL ACETONE 2/WK BEGINNING 2 WK POST CARCINOGEN DOSE AND CONTINUING FOR 24 WK (STUDY DURATION: 27 WK), Strain/Sex: SENCAR/FEMALE",skin: tumor
same,outcome,"Carcinogen: BENZO[A]PYRENE, 50-32-8, Doses [Carcinogen]: 33.3, 100, 300 NMOL IN 100 µL ACETONE ONCE, Doses [Carcinogen]: 33.3, 100, 300 NMOL IN 100 µL ACETONE ONCE, Doses [Promoter]: 3.24 NMOL/100 µL ACETONE ONCE 1 WK POST CARCINOGEN DOSE THEN 2/WK BEGINNING 3 WK LATER AND CONTINUING FOR 11 WK (STUDY D, Strain/Sex: SENCAR/FEMALE",skin: tumor
